Measurements from article PMC6470784, “Effect of Stereochemical Configuration on the Transport and Metabolism of Catechins from Green Tea across Caco-2 Monolayers” (Molecules, 2019).
Where a name gives a salt, the structure may show the parent alone. Read-outs that look alike come from different tables or passages of the source.

Tests used:
P-glycoprotein = system: P-glycoprotein; set-up: method as in PMID 15285844; conditions: KB-C2 cells; cited from earlier work
MRP2 [1] = experiment: MRP2 protein level in Caco-2 cells (Western blot); assay type: cell-based, human; conditions: 300 μmol/L, 2 h
Method: After being washed by precooled PBS buffer three times, the total lysate was prepared on ice from 5 to 8 × 10^6 cells by lysis in a 150 μL Radio Immunoprecipitation Assay (RIPA) Lysis buffer containing 1% (v/v) Phenylmethanesulfonyl fluoride (PMSF) (Beyotime, Shanghai, China). The lysates were centrifuged at 13,000 rpm for 20 min at 4 °C, after mixing uniformity. The protein-containing supernatant was collected and the protein content was determined using the Bio-Rad protein assay. Western blotting was performed according to standard techniques, as previously described. In each lane of a Bio-Rad minigel system, 10 μg of protein was loaded. For the detection of BCRP, P-glycoprotein (MDR1), and MRP2, the following polyclonal antibodies were used: rabbit anti-BCRP (1:1000), rabbit anti-P-glycoprotein (1:1000), and rabbit anti-MRP2 (1:600). Horseradish peroxidase (HRP)-conjugated goat anti-rabbit (1:3000) were used as the secondary antibodies. As a loading control, the expression of β-actin was determined using an antibody against β-actin (1:40,000). Enhanced chemiluminescence (ECL) solutions were used for chemiluminescence.

[2] = Bidirectional transepithelial transport across Caco-2 monolayers (Papp, efflux ratio), with and without MK571; conditions: human; for Papp A→B at 300 μmol/L / Papp B→A at 300 μmol/L / Papp at 300 μmol/L: Caco-2, pH 6
Method: (§1) For the transport experiments, the cells were seeded in 24-mm i.d Transwell® inserts (polycarbonate membrane, 0.4 μM pore size, Corning Costar Co., (Corning, NY, USA) in six-well plates at a density of 4 × 10^5 cells/well, and were cultured for 21 days prior to the transport experiments. To monitor the integrity of the cell layers, transepithelial electrical resistance (TEER) values were measured using a Millicell-ERS Voltohmmeter (Millipore Corp, Bedford, MA, USA). TEER values above 513.7 Ω·cm^2 in the culture medium were selected for the transport experiment.
(§2) For the transport of GTCs across the Caco-2 monolayers, the inserts were gently washed twice and were equilibrated at 37 °C for 30 min with 0.01 M modified phosphate buffer saline (PBS+), which was supplemented with 0.45 M calcium chloride and 0.4 M potassium chloride, and adjusted to pH 6.0 [7]. In the transepithelial transport, GTCs at different concentrations in PBS+ (DMSO less than 0.5%) were loaded into the apical (AP) or basolateral (BL) side, the so-called donor side. The plate was then incubated at 37 °C. At designated time intervals, aliquots of 0.5 mL of sample were taken from the other side, the so-called receiver side, and then replaced with an equal volume of PBS+. After that, the samples were dried with a CoolSafe freeze dryer (LaboGene ApS, Bjarkesvej, Denmark) at −110 °C, and stored at −20 °C until analysis.
(§3) For the inhibition of transport, MK571 was used at a concentration of 93.11 μmol/L (50 μg/mL with a DMSO less than 0.3%). The cells were preincubated with the inhibitor for 30 min. Then, the bi-directional transport studies of the GTCs in the presence of MK-571 at both the donor and receiver side were performed as for the transport method described above.
(§4) The transport samples were analyzed by an Agilent LC 1260 system (Agilent Technologies, CA, USA) after redissolving with 50 μL methyl into vial inserts (100 uL; Agilent Technologies, CA, USA). The separation was performed on an Octadecylsilyl (ODS) reversed-phase column (4.6 mm i.d. × 250 mm, 4.5 μm; TC-C18, Agilent Technologies) using a diode array detector (DAD) at 278 nm. The mobile phase consisted of 15% methanol and 0.1% formic acid at a flow-rate of 0.8 mL/min.
(§5) The values were expressed as the mean ± standard deviation (SD) of three replications. The statistical significances of the difference between the various groups were analyzed using the Fisher’s least significant difference (LSD) procedure. For comparison between the two groups, the Student’s t-test was used. The differences were considered to be significant when p < 0.05.

MRP2 [3] = system: MRP2; set-up: method as in PMID 23146761; conditions: rats, 24 h; cited from earlier work
BCRP [4] = system: BCRP; set-up: method as in PMID 20149610; conditions: MCF-7 cell line, 100 μg/mL; cited from earlier work
MRP2 [5] = experiment: MRP2 mRNA level in Caco-2 cells (qRT-PCR); assay type: cell-based, human; conditions: 300 μmol/L, 2 h
Method: The Caco-2 cells were seeded in six-well plates (Corning Costar Co., NY, USA) at a density of 4 × 10^4 cells/cm^2, and were cultured for 21 days. After incubation with each tea catechins (300 μmol/L in full culture medium) for 2 h or 24 h, the total RNA from the Caco-2 cells were isolated with a Total RNA Kit (Aidlab, Beijing, China). First-strand cDNA was synthesized using a cDNA synthesis Kit (Aidlab, Beijing, China). The gene expression of MRP2 was examined by quantitative real-time PCR with the SYBR Green qPCR Mix (Aidlab, Beijing, China) in an ABI7500 Real-Time System (Applied Biosystems, USA). The reaction was carried out in a 10 μL RT-reaction mixture containing 5 μL 2 × SYBR Green qPCR Mix, 0.2 μL forward and reverse primers (10 μmol/μL), and water to a final volume of 10 μL, and was performed under the following cycling conditions: an initial denaturing step of 10 min at 95 °C, followed by 40 cycles consisting of 5 s at 95 °C and 34 s at 60 °C.
All of the qPCR experiments were repeated in three biologicals. The data were analyzed using the 2-ΔΔCT method. All of the primers were synthesized by Sangon Biotech (Shanghai, China), as previously described, and their sequences are depicted in Table 3.

[6] = cited from earlier work
BCRP [7] = experiment: BCRP mRNA level in Caco-2 cells (qRT-PCR); assay type: cell-based, human; conditions: 2 h
Method: All of the qPCR experiments were repeated in three biologicals. The data were analyzed using the 2-ΔΔCT method [39]. All of the primers were synthesized by Sangon Biotech (Shanghai, China), as previously described [40], and their sequences are depicted in Table 3.

[8] = set-up: method as in PMID 10909265; conditions: rats, cited from earlier work
in vitro = conditions: human; for Papp A→B at 300 μmol/L / Papp B→A at 300 μmol/L / Papp at 300 μmol/L: Caco-2, pH 6; for efflux ratio: Caco-2, pH 6, Efflux ratio in the absence of MK571
Method: as §1, §2, §3, §4, §5

Caco-2 cell monolayers = experiment: Bidirectional transepithelial transport across Caco-2 monolayers (Papp, efflux ratio), with and without MK571; conditions: Caco-2 monolayers, MK571 93.11 μmol/L
Method: as §1, §2, §3, §4, §5

[9] = Caco-2, pH 6, Efflux ratio in the absence of MK571, Caco-2 monolayers, no MK571
[10] = Caco-2, pH 6, with MK571 93.11 μmol/L (50 μg/mL), Efflux ratio in the presence of MK571, Caco-2 monolayers, MK571 93.11 μmol/L
[11] = rats, intragastric administration

SMILES	Papp A→B at 300 μmol/L [2] [×10⁻⁶ cm/s]	Papp B→A at 300 μmol/L [2] [×10⁻⁶ cm/s]	efflux ratio [2, 9]	efflux ratio [2, 10]	Cellular accumulation of rhodamine-123 and daunorubicin (P-glycoprotein)	Increase of protein level of MRP2 (MRP2 [1]) [%]	Increase of mRNA levels of MRP2 (MRP2 [5]) [%]	BCRP gene expression (BCRP [7])	Papp A→B at 300 μmol/L (in vitro) [×10⁻⁶ cm/s]	Papp B→A at 300 μmol/L (in vitro) [×10⁻⁶ cm/s]	efflux ratio (in vitro)	other results
O=C(O[C@@H]1Cc2c(O)cc(O)cc2O[C@@H]1c1cc(O)c(O)c(O)c1)c1cc(O)c(O)c(O)c1 [EGCG, (−)-epigallocatechin gallate]	0.093 ± 0.008	0.257 ± 0.01	2.75	1.05	increase the cellular accumulation	42.67	89.57	upregulation	–	–	–	Protein level of MRP2 on the hepatocyte canalicular membrane (MRP2 [3]): significantly decreased; mRNA transcription and protein level of BCRP (BCRP [4]): not changed; Bioavailability [6, 11]: 0.1%; Plasma concentration following oral administration ([8]; 2500 mg/kg): 244.3 µM
Oc1cc(O)c2c(c1)O[C@@H](c1cc(O)c(O)c(O)c1)[C@H](O)C2 [GC, (+)-gallocatechin]	–	–	–	–	–	37.67	119.33	–	0.264 ± 0.021	0.875 ± 0.028	3.32	Papp at 300 μmol/L (in vitro): < 1 ×10⁻⁶ cm/s
CN(C)C(=O)CCSC(SCCC(=O)O)c1cccc(/C=C/c2ccc3ccc(Cl)cc3n2)c1 (stereo not shown) [MK-571, MK-571 sodium salt hydrate, reference compound]	–	–	–	–	–	–	–	–	–	–	–	Effect of MK-571 on the efflux of eight catechins (Caco-2 cell monolayers): significantly inhibit
O=C(O[C@@H]1Cc2c(O)cc(O)cc2O[C@H]1c1ccc(O)c(O)c1)c1cc(O)c(O)c(O)c1 [CG, (−)-catechin gallate]	–	–	–	–	–	132.00	123.09	upregulation	0.139 ± 0.012	0.651 ± 0.042	4.68	Papp at 300 μmol/L (in vitro): < 1 ×10⁻⁶ cm/s
Oc1cc(O)c2c(c1)O[C@H](c1cc(O)c(O)c(O)c1)[C@H](O)C2 [EGC, (−)-epigallocatechin]	–	–	–	–	increase the cellular accumulation	35.67	103.58	–	0.246 ± 0.01	0.674 ± 0.062	2.74	Bioavailability ([6]; rat, in vivo, po): 13.7%
O=C(O[C@@H]1Cc2c(O)cc(O)cc2O[C@@H]1c1ccc(O)c(O)c1)c1cc(O)c(O)c(O)c1 [ECG, (−)-epicatechin gallate]	–	–	–	–	increase the cellular accumulation	24.67	85.18	upregulation	0.138 ± 0.009	0.387 ± 0.031	2.82	Plasma concentration following oral administration ([8]; 650 mg/kg): 33.5 µM

Further lines, with some results ahead:

Papp A→B at 300 μmol/L [2] [×10⁻⁶ cm/s]	Papp B→A at 300 μmol/L [2] [×10⁻⁶ cm/s]	efflux ratio [2, 9]	efflux ratio [2, 10]	SMILES	Cellular accumulation of rhodamine-123 and daunorubicin (P-glycoprotein)	Increase of protein level of MRP2 (MRP2 [1]) [%]	Increase of mRNA levels of MRP2 (MRP2 [5]) [%]	BCRP gene expression (BCRP [7])	Papp A→B at 300 μmol/L (in vitro) [×10⁻⁶ cm/s]	Papp B→A at 300 μmol/L (in vitro) [×10⁻⁶ cm/s]	efflux ratio (in vitro)	other results
0.103 ± 0.021	0.293 ± 0.013	2.84	1.24	O=C(O[C@@H]1Cc2c(O)cc(O)cc2O[C@H]1c1cc(O)c(O)c(O)c1)c1cc(O)c(O)c(O)c1 [GCG, (−)-gallocatechin gallate]	–	20.67	133.15	upregulation	–	–	–	Papp at 300 μmol/L [2]: < 1 ×10⁻⁶ cm/s
0.156 ± 0.011	–	16.7	1.34	Oc1cc(O)c2c(c1)O[C@H](c1ccc(O)c(O)c1)[C@@H](O)C2 [C, (+)-catechin]	–	58.33	14.05	–	–	–	–	Papp at 300 μmol/L [2]: < 1 ×10⁻⁶ cm/s
0.152 ± 0.017	1.69 ± 0.163	11.2	1.06	Oc1cc(O)c2c(c1)O[C@H](c1ccc(O)c(O)c1)[C@H](O)C2 [EC, (−)-epicatechin]	–	60.00	41.67	upregulation	–	–	–	Bioavailability [6, 11]: 31%; Plasma concentration following oral administration ([8]; 250 mg/kg): 53 µM
